Data: BindingDB's records for PubMed 38359536 (China Pharmaceutical University)

Target: Protein arginine N-methyltransferase 5 (Homo sapiens, UniProt O14744)
Test: Inhibition of human PRMT5 expressed in HEK293 cells coexpressing MEP50 incubated for 60 mins by chemiluminescent assay

Sequence of Protein arginine N-methyltransferase 5 (O14744 whole entry): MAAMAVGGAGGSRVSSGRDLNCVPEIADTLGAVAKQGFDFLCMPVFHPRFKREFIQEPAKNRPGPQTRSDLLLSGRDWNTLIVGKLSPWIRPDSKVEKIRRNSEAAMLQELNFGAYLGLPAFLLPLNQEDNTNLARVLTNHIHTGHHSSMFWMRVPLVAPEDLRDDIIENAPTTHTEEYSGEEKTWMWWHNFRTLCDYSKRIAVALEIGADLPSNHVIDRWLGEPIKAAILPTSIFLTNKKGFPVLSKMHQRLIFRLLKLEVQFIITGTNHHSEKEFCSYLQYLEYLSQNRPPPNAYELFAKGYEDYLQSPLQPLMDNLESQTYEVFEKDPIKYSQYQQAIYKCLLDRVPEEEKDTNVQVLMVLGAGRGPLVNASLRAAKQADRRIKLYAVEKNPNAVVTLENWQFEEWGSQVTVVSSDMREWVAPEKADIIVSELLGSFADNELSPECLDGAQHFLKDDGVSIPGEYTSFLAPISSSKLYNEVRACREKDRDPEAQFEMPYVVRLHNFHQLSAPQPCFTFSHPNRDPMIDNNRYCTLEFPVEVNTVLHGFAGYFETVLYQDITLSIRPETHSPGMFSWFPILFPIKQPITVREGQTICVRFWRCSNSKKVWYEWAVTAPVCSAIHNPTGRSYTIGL

Compound `CC(=O)N1CCC(Nc2cc(C(=O)NC[C@H](O)CN3CCc4c([nH]c5ccccc45)C3)ncn2)CC1` [(S)-6-((1-acetylpiperidin-4-yl)amino)-N-(2-hydroxy-3-(1,3,4,9-tetrahydro-2H-pyrido [3,4-b]indol-2-yl)propyl)pyrimidine-4-carboxamide] has an IC50 of 10 nM.
